Assay results taken from patent US20050192285A1, “Method of treatment” (priority 2000, published 2005).
Where “and” joins values, the source holds several entries; their conditions need not be identical. Equal values may be shown once.

Experiments:
H. influenzae = settings: subset of patients with daily sputum cultures; p=0.02; cited from earlier work
[1] = cited from earlier work
[2] = GLOBE study: recurrence of AECB requiring antimicrobial treatment over 26 weeks; format: in vivo, human; settings: for Difference GEMI-CLARI in % patients with no recurrences / % patients resolved and with no recurrences of AECB: ITT; for % patients resolved and with no recurrences of AECB: GEMI 320 mg o.d./5 days, CLARI 500 mg b.d./7 days
Experimental: Background: Few health outcome studies have been reported for antimicrobial treatment of acute infections. In one study, trends favoring ciprofloxacin versus ‘usual care’ in terms of clinical outcomes were found (Grossman, et al., Chest, 113:131-141 (1998)). In this double-blind, prospective long-term study, patients who enrolled into a study comparing 320 mg gemifloxacin (GEMI) once daily (o.d.)/5 days with 500 mg clarithromycin (CLARI) twice daily (b.d.)/7 days for the treatment of AECB, and agreed at enrollment to continue in the study for up to 26 weeks, were assessed for clinical status and use of health care resources.
Methods: Clinical assessments were performed at screening (day 0), week 4-5 (end of acute study), weeks 12 and 26 and by telephone at weeks 8, 17 and 21.
(§1) Prospective, 26 week, double-blind, observational parallel/follow-on study to an acute treatment efficacy and safety study (study 068) (Wilson, et al., Abstracts of the 40th Interscience Conference of Clinical Microbiology and Infectious Diseases, Toronto, Canada, Abstract 815 (2000)) in which patients randomly received a single course of either 5 days of oral GEMI 320mg once daily (o.d.) or 7 days of oral CLARI 500 mg twice daily (b.d.) for AECB (Wilson, et al., Abstracts of the 40th Interscience Conference of Clinical Microbiology and Infectious Diseases, Toronto, Canada, Abstract 815 (2000)).
All patients entering study 068 at centers in the USA and Canada were asked to participate in the GLOBE study.
(§2) Patients were assessed at screening (visit 1) at day 28-35 (visit 2) then at weeks 12 (visit 3) and 26 (visit 4) and by telephone at weeks 8, 17 and 21.
(§3) Information was collected on: recurrent episodes of AECB requiring antimicrobial treatment; use of medical resources related to respiratory tract infection (RTI), including RTI-related:- hospitalizations, physician visits and antimicrobial therapy; time off work and usual activities; and negative impact on performance at work or during usual activities.
Clinical outcomes were analyzed for patients in the intention to treat population (ITT) who were available for assessment at 26 weeks (visit 4).

[3] = GLOBE study: RTI-related hospitalizations over 26 weeks; format: in vivo, human; settings: for percentage of patients hospitalized for RTI-related conditions / cumulative number of patients hospitalized for RTI-related conditions: 26 week study period; for cumulative number of patients hospitalized for RTI-related conditions: ITT (GEMI N=214, CLARI N=224)
Experimental: as §1, §2, §3
Medical resource utilization was analyzed on cumulative data across all patients in the ITT population.

SMILES: CO/N=C1\CN(c2nc3c(cc2F)c(=O)c(C(=O)O)cn3C2CC2)CC1CN (racemic) [GEMI, (R,S)-7-(3-aminomethyl-4-methoxyiminopyrrolidin-1-yl)-1-cyclopropyl-6-fluoro-4-oxo-1,4-dihydro-1,8-naphthyridine-3-carboxylic acid]
- time to H. influenzae eradication compared with CLARI (H. influenzae): significantly faster
- effectiveness of acute treatment compared with CLARI ([1]; 5 days GEMI vs 7 days CLARI): as effective as
- bacteriological success rates compared with CLARI ([1]; all study visits, significantly higher at late follow-up days 28-35): higher
- preventing further exacerbations versus CLARI ([2]; 6 month period following start of therapy, GEMI 320 mg o.d./5 days vs CLARI 500 mg b.d./7 days): superior to CLARI
- long-term clinical outcomes in AECB compared to clarithromycin ([2]; GLOBE conclusions): superior
- patients with a recurrence of AECB ([2]; by week 26): 29.0%
- fewer patients with a recurrence of AECB compared with CLARI ([2]; by week 26, relative reduction (29.0% vs. 41.5%)): 30%
- Difference GEMI-CLARI in % patients with no recurrences ([2]; visit 2 (day 28-35)): 6.3%
- % patients resolved and with no recurrences of AECB ([2]; visit 2 (day 28-35)): 87.1 (176/202) %
- Difference GEMI-CLARI in % patients with no recurrences ([2]; visit 3 (week 12)): 6.4%
- % patients resolved and with no recurrences of AECB ([2]; visit 3 (week 12)): 80.9 (148/183) %
- Difference GEMI-CLARI in % patients with no recurrences ([2]; visit 4 (week 26)): 12.5% and 12.5^b %
- % patients resolved and with no recurrences of AECB ([2]; visit 4 (week 26)): 71.0% and 71.0 (120/169) %
- RTI-related hospitalization days per 100 patients ([3]; 26-week study period): 20 days per 100 patients
- Cumulative number of RTI-related hospitalization days, mean (SD) ([3]; 26-week study period, ITT): 0.20 (1.43) days
- Cumulative number of RTI-related hospitalization days, median (range) ([3]; 26-week study period, ITT): 0 (0-16) days
- Median difference gemifloxacin-clarithromycin in RTI-related hospitalization days (95% CI) ([3]; 26-week study period, ITT): 0 (0, 0) days
- percentage of patients hospitalized for RTI-related conditions ([3]; ITT): 2.3%
- cumulative number of patients hospitalized for RTI-related conditions [3]: 5
- RTI-related hospitalizations across all visits, percentage ([3]; 26 weeks, ITT): 3.3%
- cumulative number of RTI-related hospitalizations across all visits ([3]; 26 weeks, ITT): 7
- treatment difference in RTI-related hospitalizations ([3]; GEMI minus CLARI, 26 weeks): −3.87%
- treatment difference in patients hospitalized for RTI-related conditions ([3]; GEMI minus CLARI, 26 weeks): −3.91%

SMILES: CC[C@H]1OC(=O)[C@H](C)[C@@H](O[C@H]2C[C@@](C)(OC)[C@@H](O)[C@H](C)O2)[C@H](C)[C@@H](O[C@@H]2O[C@H](C)C[C@H](N(C)C)[C@H]2O)[C@](C)(OC)C[C@@H](C)C(=O)[C@H](C)[C@@H](O)[C@]1(C)O [CLARI, clarithromycin, reference compound]
- patients with a recurrence of AECB ([2]; by week 26): 41.5%
- % patients resolved and with no recurrences of AECB ([2]; visit 2 (day 28-35)): 80.8 (173/214) %
- % patients resolved and with no recurrences of AECB ([2]; visit 3 (week 12)): 74.4 (131/176) %
- % patients resolved and with no recurrences of AECB ([2]; visit 4 (week 26)): 58.5% and 58.5 (100/171) %
- RTI-related hospitalization days per 100 patients ([3]; 26-week study period): 37 days per 100 patients
- Cumulative number of RTI-related hospitalization days, mean (SD) ([3]; 26-week study period, ITT): 0.37 (1.60) days
- Cumulative number of RTI-related hospitalization days, median (range) ([3]; 26-week study period, ITT): 0 (0-11) days
- percentage of patients hospitalized for RTI-related conditions ([3]; ITT): 6.3%
- cumulative number of patients hospitalized for RTI-related conditions [3]: 14
- RTI-related hospitalizations across all visits, percentage ([3]; 26 weeks, ITT): 7.1%
- cumulative number of RTI-related hospitalizations across all visits ([3]; 26 weeks, ITT): 16
